The term IC50 denotes the concentration that inhibits the measured activity by half. High values mean a need for much substance, low ones inhibition by little substance.

Structures are written as SMILES. Calls of active or inactive are those of the source. The calls are words filed in the database; no cut-off is given here.

Assay [1] deals with Escherichia coli. Kind of assay: Antimicrobial activity against Escherichia coli at 10 ug/disk. The format is functional, organism-based.
Assay [2] deals with Escherichia coli. Nature of the assay: Antimicrobial activity against Escherichia coli at 5 ug/disk. The format is functional, organism-based.
For assay [3], the system named is Escherichia coli. Kind of assay: Antimicrobial activity against Escherichia coli at 1 ug/disk. It is filed as functional, organism-based.
The test system of assay [4] is Staphylococcus aureus. Nature of the assay: Antimicrobial activity against Staphylococcus aureus at 10 ug/disk. The format is functional, organism-based.
Assay [5] deals with Staphylococcus aureus. Nature of the assay: Antimicrobial activity against Staphylococcus aureus at 5 ug/disk. It is filed as functional, organism-based.
Assay [6] has as its system Staphylococcus aureus. Kind of assay: Antimicrobial activity against Staphylococcus aureus at 1 ug/disk. The format is functional, organism-based.
In the next assay the test system is HCT-116. Nature of the assay: Cytotoxicity against human HCT116 cells. It is filed as functional, cell-based.

Turning to `CC(=O)O[C@@H]1[C@H](C)OC(=O)[C@@H]1CCCCCCCCCCCCC1=C[C@H](C)OC1=O` [ANCEPSENOLIDE ACETATE], the outcome with Escherichia coli [1], in the assay with Escherichia coli [2], with Escherichia coli [3], with Staphylococcus aureus [4], in the assay on Staphylococcus aureus [5] and in the assay on Staphylococcus aureus [6] was inactive. The IC50 in the assay with HCT-116 was over 50 µg/mL.
For `CC(=O)O[C@@H]1[C@H](C)OC(=O)[C@@H]1CCCCCC/C=C\CCCCCCC1=C[C@H](C)OC1=O`, the result in the assay with Escherichia coli [1], with Escherichia coli [2], with Escherichia coli [3], in the assay on Staphylococcus aureus [4], in the assay with Staphylococcus aureus [5] and in the assay on Staphylococcus aureus [6] was inactive.
As for `CC(=O)O[C@H]1[C@H](C)OC(=O)[C@H]1CCCCCCCCCCCCCCC1=C[C@H](C)OC1=O`, the outcome in the assay with Escherichia coli [1], with Escherichia coli [2], in the assay on Escherichia coli [3], with Staphylococcus aureus [4], in the assay on Staphylococcus aureus [5] and in the assay on Staphylococcus aureus [6] was inactive.
As to `C[C@H]1C=C(CCCCCC/C=C\CCCCCCC2=C[C@H](C)OC2=O)C(=O)O1`, the result in the assay with Escherichia coli [1], in the assay with Escherichia coli [2], in the assay with Escherichia coli [3], in the assay on Staphylococcus aureus [4], in the assay on Staphylococcus aureus [5] and in the assay with Staphylococcus aureus [6] was inactive. The IC50 in the assay on HCT-116 is over 50 µg/mL.
For the compound `C[C@H]1C=C(CCCCCCCCCCCCCCC2=C[C@H](C)OC2=O)C(=O)O1` [HOMOANCEPSENOLIDE], the result in the assay on Escherichia coli [1], in the assay on Escherichia coli [2], in the assay on Escherichia coli [3], in the assay on Staphylococcus aureus [4], with Staphylococcus aureus [5] and in the assay on Staphylococcus aureus [6] was inactive. In addition, the IC50 with HCT-116 is over 50 µg/mL.
As for `CC(=O)O[C@H]1[C@H](C)OC(=O)[C@H]1CCCCCCCCCCCCC1=C[C@H](C)OC1=O`, the outcome in the assay on Escherichia coli [1], in the assay on Escherichia coli [2], with Escherichia coli [3], in the assay on Staphylococcus aureus [4], with Staphylococcus aureus [5] and in the assay with Staphylococcus aureus [6] was inactive.
Turning to `CC(=O)O[C@@H]1[C@H](C)OC(=O)[C@@H]1CCCCCCCCCCCCCCC1=C[C@H](C)OC1=O`, the outcome in the assay with Escherichia coli [1], in the assay with Escherichia coli [2], with Escherichia coli [3], in the assay on Staphylococcus aureus [4], in the assay on Staphylococcus aureus [5] and in the assay with Staphylococcus aureus [6] was inactive.
Consider `C[C@@H]1OC(=O)[C@@H](CCCCCCCCCCCCC2=C[C@H](C)OC2=O)[C@H]1O`, for which the outcome in the assay with Escherichia coli [1], with Escherichia coli [2], in the assay on Escherichia coli [3], in the assay with Staphylococcus aureus [4], with Staphylococcus aureus [5] and in the assay on Staphylococcus aureus [6] was inactive.

The record behind these values is ChEMBL document CHEMBL1149045, “Further butenolides from the Caribbean octocoral Pterogorgia citrina” (J Nat Prod, 1994).
